Measurements: patent US20250188110A1, “SPECIFIC SMALL MOLECULE INHIBITORS THAT BLOCK KMT9 METHYLTRANSFERASE ACTIVITY AND FUNCTION” (ALBERT-LUDWIGS-UNIVERSITÄT FREIBURG, priority 2021, published 2025)
Like-named read-outs stand apart in the source and are kept apart here.

What was measured:
KMT9 [1] = target: T1, KMT9 (Homo sapiens, UniProt Q9Y5N5); assay: Microscale thermophoresis (MST) KMT9 binding
T1 sequence (Q9Y5N5 1-214): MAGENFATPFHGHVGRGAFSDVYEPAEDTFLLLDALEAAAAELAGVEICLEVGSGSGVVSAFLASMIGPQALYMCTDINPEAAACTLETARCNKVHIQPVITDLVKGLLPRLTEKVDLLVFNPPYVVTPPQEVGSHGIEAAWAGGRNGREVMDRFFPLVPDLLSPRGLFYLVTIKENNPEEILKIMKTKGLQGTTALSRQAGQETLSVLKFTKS
T1 sequence (Q9UI30 1-120 isoform Q9UI30-2 partner): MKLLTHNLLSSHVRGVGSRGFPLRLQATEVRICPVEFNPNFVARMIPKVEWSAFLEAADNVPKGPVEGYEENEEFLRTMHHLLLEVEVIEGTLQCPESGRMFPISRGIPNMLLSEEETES
How it was run: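 Kd from microscale thermophoresis: compound series against 20 nM His-KMT9 labelled via RED-Tris-NTA, buffer 25 mM HEPES (pH 7.5)/100 mM NaCl/1 mM DTT/0.05% Tween, 40% MST power, 100% LED. Reported as classes: A ≤10 nM, B >10–100 nM, C >100–1000 nM, D >1000 nM.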

KMT9 [2] = target: T1, KMT9; assay: KMT9 thermal shift assay (SyproOrange); assay type: binding
How it was run: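 ΔTm versus DMSO-only control is reported in bins (>20 K, 15–20 K, 10–15 K, ≤10 K), using Tm from Boltzmann sigmoidal fits of SyproOrange melt curves. KMT9 with compound in pH 8.5 BTP buffer containing MgCl2 and DTT was preincubated at 25° C, then ramped 1° C per 15 s up to 95° C.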

KMT9 [3] = target: T1, KMT9; assay: KMT9 methyltransferase inhibition assay, MTaseGlo luminescence (from entry 155); assay type: biochemical; conditions: 100 nM KMT9, 5 μM ETF1, 1 μM SAM
Experimental: For the compounds from entry 155 on in Table 1, the following procedure was used to determine IC50 values: The assay was carried out in white, opaque 384-well OptiPlates (PerkinElmer). For IC50 determination, a 2.5x substrate mix (final assay concentrations: 5 μM ETF1, 1 μM SAM and 1x MTaseGlo Reagent), a 2.5x KMT9 solution (final assay concentration 100 nM) and a 5x inhibitor stock 1:1 dilution series (concentration according to the desired range; dilution series was prepared in assay buffer containing 10% DMSO to obtain a final DMSO concentration of 2% in the assay) were prepared. 2 μL of 5x inhibitor stock and 4 μL of 2.5x KMT9 were pipetted, the plate was spun down at 700 rpm for 1 min using a Hettich UNIVERSAL 320 centrifuge and incubated at room temperature (around 25° C.) for 15 min. The reaction was initiated by adding 4 μL of 2.5x substrate mix, the plate was spun down as described before and incubated at 30° C. for 2 h. Afterwards, 10 μL of 2× MTaseGlo Detection solution was added, the plate was centrifuged as described above and incubated for 60 min at room temperature. Luminescence was measured using a PerkinElmer EnVision 2102 Multilabel Reader. Calculation of inhibition and data fitting was carried out as for entries 1-154. described above.
For the results of the methyltransferase inhibition assay shown as “Inhibition” in Table 1, “I” represents an IC50 less than 0.1 μM, “II” represents an IC50 equal or higher than 0.1 μM and less than 1 μM, “III” represents an IC50 equal or higher than 1 µM and less than 10 µM and “IV” represents an IC50 equal or higher than 10 µM

[4] = microscale thermophoresis, His-tag labelled KMT9 (20 nM), read-out: MST
[5] = ΔTm, 500 µM compound, 2 μM KMT9, 5X SO, read-out: Thermal shift
[6] = from entry 155: MTaseGlo assay, read-out: Inhibition
[7] = His-tag labelled KMT9 20 nM, read-out: MST (Kd)
[8] = 500 µM compound, 2 μM KMT9, read-out: Thermal shift (ΔTm)
[9] = MTaseGlo procedure (entries from 155), read-out: Inhibition (IC50)
[10] = His-tag labelled KMT9 20 nM, Kd class, read-out: MST
[11] = ΔTm class, 500 uM compound, 2 μM KMT9, read-out: Thermal shift
[12] = IC50 class, MTaseGlo procedure (entries from 155 on), read-out: Inhibition

Row | Kd (KMT9 [1]; [7]) | ΔTm at 500 µM (KMT9 [2]; [8]) | IC50 (KMT9 [3]; [9]) | Kd (KMT9 [1]; [10]) | ΔTm at 500 µM (KMT9 [2]; [11]) | IC50 (KMT9 [3]; [12]) | Structure (SMILES) | other results
1 |  |  |  |  |  |  | O[C@@H]1[C@H](O)[C@@H](C2CCNCC2)C[C@H]1n1cc(-c2ccn(Cc3ccccc3)n2)c2cnc(Cl)nc21 [Compound 522, (1R,2S,3R,5R)-3-(5-(1-benzyl-1H-pyrazol-3-yl)-2-chloro-7H-pyrrolo[2,3-d]pyrimidin-7-yl)-5-(piperidin-4-yl)cyclopentane-1,2-diol] | Kd (KMT9 [1]; [4]): 100 to 1000 nM; ΔTm at 500 µM (KMT9 [2]; [5]): 15 to 20 °C; IC50 (KMT9 [3]; [6]): 1000 to 10000 nM
2 | 100 to 1000 nM | 10 to 15 °C | 1000 to 10000 nM |  |  |  | Nc1nc(Cl)nc2c1c(-c1nc(Cc3ccccc3)cs1)cn2[C@@H]1C[C@H](C2CCN(CC3CCCC3)CC2)[C@@H](O)[C@H]1O [Compound 523, (1R,2S,3R,5R)-3-(4-amino-5-(4-benzylthiazol-2-yl)-2-chloro-7H-pyrrolo[2,3-d]pyrimidin-7-yl)-5-(1-(cyclopentylmethyl)piperidin-4-yl)cyclopentane-1,2-diol] | 
3 |  |  |  | > 1000 nM | ≤ 10 °C | > 10000 nM | Nc1ncnc2c1ccn2[C@@H]1C[C@H](c2cccc(-c3cscn3)c2)[C@@H](O)[C@H]1O [Compound 654, (1R,2S,3R,5R)-3-{4-aminopyrrolo[2,3-d]pyrimidin-7-yl}-5-[3-(1,3-thiazol-4-yl)phenyl]cyclopentane-1,2-diol] | 
4 |  |  |  | ≤ 10 nM | 15 to 20 °C | 100 to 1000 nM | O[C@@H]1[C@@H](CN(CCCNCCc2ccccc2)c2cn[nH]c2)C[C@@H](n2cc(-c3cccs3)c3cnc(Cl)nc32)[C@@H]1O [Compound 641, (1R,2S,3R,5R)-3-(2-Chloro-5-(thiophen-2-yl)-7H-pyrrolo[2,3-d]pyrimidin-7-yl)-5-(((3-(phenethylamino)propyl)(1H-pyrazol-4-yl)amino)methyl)cyclopentane-1,2-diol] | 
5 | > 1000 nM | ≤ 10 °C | > 10000 nM |  |  |  | CNc1ncnc2c1ccn2[C@@H]1C[C@H](c2ccc(O)cc2)[C@@H](O)[C@H]1O [Compound 406, (1S,2R,3R,5R)-3-(4-hydroxyphenyl)-5-(4-(methylamino)-7H-pyrrolo[2,3-a]pyrimidin-7-yl) cyclopentane-1,2-diol] | 
6 | 100 to 1000 nM | 10 to 15 °C | 1000 to 10000 nM |  |  |  | COc1cc(OC)cc([C@H]2C[C@@H](n3cc(-c4ccn(C)n4)c4c(N)nc(Cl)nc43)[C@H](O)[C@@H]2O)c1 [Compound 678, (1R,2S,3R,5R)-3-[4-amino-2-chloro-5-(1-methylpyrazol-3-yl)pyrrolo[2,3-d]pyrimidin-7-yl]-5-(3,5-dimethoxyphenyl)cyclopentane-1,2-diol] | 
7 | ≤ 10 nM | 15 to 20 °C | 100 to 1000 nM |  |  |  | Nc1nc(Cl)nc2c1c(Br)cn2[C@@H]1C[C@H](c2cccc(CN3CCC3)c2)[C@@H](O)[C@H]1O [Compound 673, (1R,2S,3R,5R)-3-(4-amino-5-bromo-2-chloro-7H-pyrrolo[2,3-d]pyrimidin-7-yl)-5-(3-(azetidin-1-ylmethyl)phenyl)cyclopentane-1,2-diol] | 
8 |  |  |  |  |  |  | Nc1ncnc2c1ccn2[C@@H]1C[C@H](c2ccncc2)[C@@H](O)[C@H]1O [Compound 389, (1R,2S,3R,5R)-3-(4-amino-7H-pyrrolo[2,3-d]pyrimidin-7-yl)-5-(pyridin-4-yl) cyclopentane-1,2-diol] | Kd (KMT9 [1]; [4]): > 1000 nM; ΔTm at 500 µM (KMT9 [2]; [5]): ≤ 10 °C; IC50 (KMT9 [3]; [6]): > 10000 nM
9 | ≤ 10 nM | > 20 °C | 100 to 1000 nM |  |  |  | Nc1nc(Cl)nc2c1c(-c1ccn(S(=O)(=O)c3ccccc3)n1)cn2[C@@H]1C[C@H](C2CCN(CCc3ccccc3)CC2)[C@@H](O)[C@H]1O [Compound 519, (1R,2S,3R,5R)-3-{4-amino-5-[1-(benzenesulfonyl)pyrazol-3-yl]-2-chloropyrrolo[2,3-d]pyrimidin-7-yl}-5-[1-(2-phenylethyl)piperidin-4-yl]cyclopentane-1,2-diol] | 
10 |  |  |  | > 1000 nM | ≤ 10 °C | > 10000 nM | CCc1cn([C@@H]2C[C@H](c3ccccc3)[C@@H](O)[C@H]2O)c2ncnc(N)c12 [Compound 396, (1R,2S,3R,5R)-3-(4-amino-5-ethyl-7H-pyrrolo[2,3-d]pyrimidin-7-yl)-5-phenylcyclopentane-1,2-diol] | 
11 | 10 to 100 nM | 10 to 15 °C | 100 to 1000 nM |  |  |  | COc1ccc([C@H]2C[C@@H](n3ccc4c(N)nc(Cl)nc43)[C@H](O)[C@@H]2O)cc1 [Compound 682, (1R,2S,3R,5R)-3-{4-Amino-2-chloropyrrolo[2,3-d]pyrimidin-7-yl}-5-(4-methoxyphenyl)cyclopentane-1,2-diol] | 
12 | > 1000 nM | ≤ 10 °C | > 10000 nM |  |  |  | Nc1cccc([C@H]2C[C@@H](n3ccc4c(N)ncnc43)[C@H](O)[C@@H]2O)c1 [Compound 410, (1R,2S,3R,5R)-3-(4-amino-7H-pyrrolo[2,3-d]pyrimidin-7-yl)-5-(3-aminophenyl) cyclopentane-1,2-diol] | 
13 |  |  |  | ≤ 10 nM | > 20 °C | 100 to 1000 nM | Nc1nc(Cl)nc2c1c(-c1nc(Cc3ccccc3)cs1)cn2[C@@H]1C[C@H](C2CCN(CC3CC3)CC2)[C@@H](O)[C@H]1O [Compound 507, (1R,2S,3R,5R)-3-[4-amino-5-(4-benzyl-1,3-thiazol-2-yl)-2-chloropyrrolo[2,3-d]pyrimidin-7-yl]-5-[1-(cyclopropylmethyl)piperidin-4-yl]cyclopentane-1,2-diol] | 
14 |  |  |  | ≤ 10 nM | > 20 °C | 100 to 1000 nM | CN1CCC([C@H]2C[C@@H](n3cc(-c4ccn(S(=O)(=O)c5ccccc5)n4)c4c(N)nc(Cl)nc43)[C@H](O)[C@@H]2O)CC1 [Compound 492, (1R,2S,3R,5R)-3-(4-Amino-2-chloro-5-(1-(phenylsulfonyl)-1H-pyrazol-3-yl)-7H-pyrrolo[2,3-d]pyrimidin-7-yl)-5-(1-methylpiperidin-4-yl)cyclopentane-1,2-diol] | 
15 |  |  |  | 100 to 1000 nM | ≤ 10 °C | 1000 to 10000 nM | O[C@@H]1[C@H](O)[C@@H](C2=CCCN(CC3CC3)C2)C[C@H]1n1cc(-c2nc(Cc3ccccc3)cs2)c2cnc(Cl)nc21 [Compound 586, (1R,2S,3R,5R)-3-[5-(4-Benzyl-1,3-thiazol-2-yl)-2-chloropyrrolo[2,3-d]pyrimidin-7-yl]-5-[1-(cyclopropylmethyl)-5,6-dihydro-2H-pyridin-3-yl]cyclopentane-1,2-diol] | 
16 | ≤ 10 nM | 15 to 20 °C | 100 to 1000 nM |  |  |  | CN1CC=C([C@H]2C[C@@H](n3cc(-c4nccs4)c4c(N)nc(Cl)nc43)[C@H](O)[C@@H]2O)CC1 [Compound 493, (1R,2S,3R,5R)-3-(4-Amino-2-chloro-5-(thiazol-2-yl)-7H-pyrrolo[2,3-d]pyrimidin-7-yl)-5-(1-methyl-1,2,3,6-tetrahydropyridin-4-yl)cyclopentane-1,2-diol] | 
17 | ≤ 10 nM | > 20 °C | 100 to 1000 nM |  |  |  | Nc1nc(Cl)nc2c1c(Br)cn2[C@@H]1CC(CNCCCNCCc2ccc(F)cc2)[C@@H](O)[C@H]1O (mixture of isomers) [Compound 547, (1R,2S,3R)-3-(4-amino-5-bromo-2-chloro-7H-pyrrolo[2,3-d]pyrimidin-7-yl)-5-(((3-((4-fluorophenethyl)amino)propyl)amino)methyl)cyclopentane-1,2-diol] | 
